Data taken from patent US9326515B2, “Fungicidal 3-[(1,3-thiazol-4-ylmethoxyimino)(phenyl)methyl]-2-substituted-1,2,4-oxadiazol-5(2H)-one derivatives” (BAYER INTELLECTUAL PROPERTY GMBH, priority 2011, dated 2016).

Key:
Alternaria brassicae = experiment: Example B: in vivo preventive test on Alternaria brassicae (leaf spot on radish); conditions: 500 ppm, spray on radish plants, contaminated after 24 hours, grading 6 days after contamination vs control plants
Procedure: The active ingredients tested are prepared by homogenization in a mixture of acetone/tween/DMSO, and then diluted with water to obtain the desired active material concentration.
Radish plants (“Pernod Clair” variety), sown in starter cups on a 50/50 peat soil-pozzolana substrate and grown at 17° C., are treated at the cotyledon stage by spraying with the active ingredient prepared as described above. Plants, used as controls, are treated with the mixture of acetone/tween/DMSO/water not containing the active material.
After 24 hours, the plants are contaminated by spraying the cotyledons with an aqueous suspension of Alternaria brassicae spores (50 000 spores per ml). The spores are collected from a 15-day-old culture. The contaminated radish plants are incubated at 20° C. and at 100% relative humidity.
Grading (% of efficacy) is carried out 6 days after the contamination, in comparison with the control plants.
Under these conditions, good (at least 70%) or total protection is observed at a dose of 500 ppm with the following compounds: […]

Phytophthora infestans = type: in vivo; conditions: 500 ppm, spray on tomato plants, contaminated after 24 hours, grading 5 days after contamination vs control plants
[1] = pH 2.7

SMILES: COc1cccc(/C(=N/OCc2csc(NC(=O)C3CCc4ccccc4O3)n2)c2nc(=O)on2C)c1 (racemic) [Example 35]
- % efficacy (Alternaria brassicae): 100%
- % efficacy (Phytophthora infestans): 90%
- LogP [1]: 3.44
